According to paper PMC9316317, “Reducing the Kidney Uptake of High Contrast CXCR4 PET Imaging Agents via Linker Modifications” (Pharmaceutics, 2022):
Where a SMILES comes first, the peptide text is derived from it. Side-chain parts run from the residue outwards. [ ]: non-standard residue; d: D form. The star is where a group is joined. DOTA = O=C(O)CN1CCN(CC(=O)O)CCN(CC(=O)*)CCN(CC(=O)O)CC1; 2Nal = N[C@@H](Cc1ccc2ccccc2c1)C(=O)O; dNMeOrn = CN[C@H](CCCN)C(=O)O; 4Amb = NCc1ccc(C(=O)O)cc1

Key:
[1] = test system: CXCR4-expressing Daudi xenograft mice; test: Ex vivo biodistribution in Daudi xenograft-bearing mice
Protocol: (§1) Male NOD.Cg-Rag1tm1Mom Il2rgtm1Wjl/SzJ (NRG) mice were obtained from an in-house breeding colony at the Animal Resource Centre of the BC Cancer Research Centre, Vancouver, Canada. Mice (6–10 weeks old, 25–30 g weight) were subcutaneously inoculated with 5 × 10^6 Daudi cells (100 μL; 1:1 ratio of PBS/Matrigel) on the left flank.
(§2) Additional groups of mice received 7.5 µg (0.25–0.3 mg/kg) LY2510924 as a blocking control i.p. 15 min before radiotracer injection, and euthanized 1 h p.i. Tissues were harvested, washed in PBS, blotted dry, and weighed, and radioactivity was counted on a Hidex AMG Automatic Gamma Counter. The counts were decay corrected, converted to absolute units using a calibration curve, and expressed as percent injected dose per gram of tissue (%ID/g).

[2] = as above; conditions: male, NOD.Cg-Rag1tm1Mom Il2rgtm1Wjl/SzJ (NRG), mouse, iv, total radioactivity; for tissue uptake at 2 h: 2 h p.i.
Protocol: as §1, §2

[3] = 1 h p.i. blocked with LY2510924, mean

Tumor:Blood ratio [1, 3]: 0.53
Tumor:Bone ratio [1, 3]: 2.67
Tumor:Liver ratio [1, 3]: 0.50
Tumor:Lung ratio [1, 3]: 0.47
Tumor:Muscle ratio [1, 3]: 2.55
Tumor:Spleen ratio [1, 3]: 1.14
Tumor:Blood ratio ([1]; 1 h p.i., mean): 6.53
Tumor:Bone ratio ([1]; 1 h p.i., mean): 35.99
Tumor:Kidney ratio ([1]; 1 h p.i., mean): 2.29 ± 0.38
Tumor:Liver ratio ([1]; 1 h p.i., mean): 5.14
Tumor:Lung ratio ([1]; 1 h p.i., mean): 5.48
Tumor:Muscle ratio ([1]; 1 h p.i., mean): 33.25
Tumor:Spleen ratio ([1]; 1 h p.i., mean): 10.20
Tumor:Blood ratio ([1]; 2 h p.i., mean): 18.94
Tumor:Bone ratio ([1]; 2 h p.i., mean): 43.48
Tumor:Kidney ratio ([1]; 2 h p.i., mean): 3.07 ± 0.54
Tumor:Liver ratio ([1]; 2 h p.i., mean): 5.93
Tumor:Lung ratio ([1]; 2 h p.i., mean): 9.95
Tumor:Muscle ratio ([1]; 2 h p.i., mean): 95.44
Tumor:Spleen ratio ([1]; 2 h p.i., mean): 16.57
tissue uptake at 1 h ([2]; adrenals, Adrenals uptake, 1 h p.i. blocked with LY2510924, mean): 0.38 %ID/g
tissue uptake at 1 h ([2]; adrenals, Adrenals uptake, 1 h p.i., mean): 0.34 %ID/g
tissue uptake at 2 h ([2]; adrenals, Adrenals uptake, mean): 0.18 %ID/g
tissue uptake at 1 h ([2]; blood, Blood uptake, 1 h p.i. blocked (7.5 µg LY2510924 i.p. 15 min before tracer), mean): 1.23 %ID/g
tissue uptake at 2 h ([2]; blood, Blood uptake, mean): 0.28 ± 0.04 %ID/g
tissue uptake at 1 h ([2]; bone, Bone uptake, 1 h p.i. blocked with LY2510924, mean): 0.27 %ID/g
tissue uptake at 1 h ([2]; bone, Bone uptake, 1 h p.i., mean): 0.18 %ID/g
tissue uptake at 2 h ([2]; bone, Bone uptake, mean): 0.14 %ID/g
tissue uptake at 1 h ([2]; brain, Brain uptake, 1 h p.i. blocked with LY2510924, mean): 0.03 %ID/g
tissue uptake at 1 h ([2]; brain, Brain uptake, 1 h p.i., mean): 0.03 %ID/g
tissue uptake at 2 h ([2]; brain, Brain uptake, mean): 0.01 %ID/g
tissue uptake at 1 h ([2]; fat, Fat uptake, 1 h p.i. blocked with LY2510924, mean): 0.18 %ID/g
tissue uptake at 1 h ([2]; fat, Fat uptake, 1 h p.i., mean): 0.08 %ID/g
tissue uptake at 2 h ([2]; fat, Fat uptake, mean): 0.04 %ID/g
tissue uptake at 1 h ([2]; heart, Heart uptake, 1 h p.i. blocked with LY2510924, mean): 0.47 %ID/g
tissue uptake at 1 h ([2]; heart, Heart uptake, 1 h p.i., mean): 0.36 %ID/g
tissue uptake at 2 h ([2]; heart, Heart uptake, mean): 0.13 %ID/g
tissue uptake at 1 h ([2]; intestine, Intestine uptake, 1 h p.i. blocked with LY2510924, mean): 0.59 %ID/g
tissue uptake at 2 h ([2]; intestine, Intestine uptake, mean): 0.2 %ID/g
tissue uptake at 1 h ([2]; kidney, Kidney uptake, 1 h p.i. blocked with LY2510924, mean): 3.16 %ID/g
tissue uptake at 1 h ([2]; kidney, Kidney uptake, 1 h p.i., mean): 2.78 %ID/g
tissue uptake at 2 h ([2]; kidney, Kidney uptake, mean): 1.76 ± 0.38 %ID/g
tissue uptake at 1 h ([2]; liver, Liver uptake, 1 h p.i. blocked with LY2510924, mean): 1.25 %ID/g
tissue uptake at 1 h ([2]; liver, Liver uptake, 1 h p.i., mean): 1.23 ± 0.15 %ID/g
tissue uptake at 2 h ([2]; liver, Liver uptake, mean): 0.89 ± 0.12 %ID/g
tissue uptake at 1 h ([2]; lung, Lung uptake, 1 h p.i. blocked with LY2510924, mean): 1.39 %ID/g
tissue uptake at 1 h ([2]; lung, Lung uptake, 1 h p.i., mean): 1.16 ± 0.14 %ID/g
tissue uptake at 2 h ([2]; lung, Lung uptake, mean): 0.54 ± 0.08 %ID/g
tissue uptake at 1 h ([2]; muscle, Muscle uptake, 1 h p.i. blocked with LY2510924, mean): 0.26 %ID/g
tissue uptake at 1 h ([2]; muscle, Muscle uptake, 1 h p.i., mean): 0.2 %ID/g
tissue uptake at 2 h ([2]; muscle, Muscle uptake, mean): 0.06 ± 0.02 %ID/g
tissue uptake at 1 h ([2]; pancreas, Pancreas uptake, 1 h p.i. blocked with LY2510924, mean): 0.25 %ID/g
tissue uptake at 1 h ([2]; pancreas, Pancreas uptake, 1 h p.i., mean): 0.21 %ID/g
tissue uptake at 2 h ([2]; pancreas, Pancreas uptake, mean): 0.08 %ID/g
tissue uptake at 1 h ([2]; spleen, Spleen uptake, 1 h p.i. blocked with LY2510924, mean): 0.59 %ID/g
tissue uptake at 1 h ([2]; spleen, Spleen uptake, 1 h p.i., mean): 0.63 %ID/g
tissue uptake at 2 h ([2]; spleen, Spleen uptake, mean): 0.33 %ID/g
tissue uptake at 1 h ([2]; stomach, Stomach uptake, 1 h p.i. blocked with LY2510924, mean): 0.17 %ID/g
tissue uptake at 1 h ([2]; stomach, Stomach uptake, 1 h p.i., mean): 0.13 %ID/g
tissue uptake at 2 h ([2]; stomach, Stomach uptake, mean): 0.05 %ID/g
tissue uptake at 1 h ([2]; testes, Testes uptake, 1 h p.i. blocked with LY2510924, mean): 0.55 %ID/g
tissue uptake at 1 h ([2]; testes, Testes uptake, 1 h p.i., mean): 0.39 %ID/g
tissue uptake at 2 h ([2]; testes, Testes uptake, mean): 0.13 %ID/g
tissue uptake at 1 h ([2]; tumor (Daudi xenograft), Tumor uptake (Daudi xenograft), 1 h p.i. blocked with LY2510924, mean): 0.61 %ID/g
tissue uptake at 1 h ([2]; tumor (Daudi xenograft), Tumor uptake (Daudi xenograft), 1 h p.i., mean): 6.31 ± 1.02 %ID/g
tissue uptake at 2 h ([2]; tumor (Daudi xenograft), Tumor uptake (Daudi xenograft), mean): 5.23 %ID/g
SMILES: CN1C(=O)[C@@H](Cc2ccc(O)cc2)NC(=O)CNC(=O)[C@H](Cc2ccc3ccccc3c2)NC(=O)[C@H](CCCNC(=N)N)NC(=O)[C@H]1CCCNC(=O)c1ccc(CNC(=O)CN2CCN(CC(=O)O)CCN(CC(=O)O)CCN(CC(=O)O)CC2)cc1 [[68Ga]Ga-Pentixafor, metal not drawn] (cyclo([dY][dNMeOrn]([4Amb-DOTA])R[2Nal]G))
